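Cells were grown in 96-well plates and exposed to each compound for 48 hours at five concentrations; endpoints were interpolated linearly between bracketing concentrations, or set to the highest concentration if not reached. GI50 is the concentration that inhibits growth by half.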 Activity calls are given as the source filed them. Cut-off read from the data, not from the text of the source: active = GI50 up to about 1.1 µM and inactive = higher.
Key:
Assay in all cases: growth of human tumour cells (NCI), 48 h
786-0 = tested on: 786-0
A549 = tested on: A549
ACHN = tested on: ACHN
COLO 205 = tested on: COLO 205
HOP-62 = tested on: HOP-62
HOP-92 = tested on: HOP-92
HT-29 = tested on: HT-29
KM12 = tested on: KM12
M19-MEL = tested on: M19-MEL
OVCAR-4 = tested on: OVCAR-4
SF-268 = tested on: SF-268
SK-MEL-5 = tested on: SK-MEL-5
SW-620 = tested on: SW-620
TK-10 = tested on: TK-10
Hs-578T = tested on: Hs-578T
MDA-MB-231 = tested on: MDA-MB-231
MDA-MB-435 = tested on: MDA-MB-435
MDA-N = tested on: MDA-N
PC-3 = tested on: PC-3
T47D = tested on: T47D

Compound	GI50 (786-0)	GI50 (A549)	GI50 (ACHN)	GI50 (COLO 205)	GI50 (HOP-62)	GI50 (HOP-92)	GI50 (HT-29)	GI50 (KM12)	GI50 (M19-MEL)	GI50 (OVCAR-4)	GI50 (SF-268)	GI50 (SK-MEL-5)	GI50 (SW-620)	GI50 (TK-10)	GI50 (Hs-578T)	GI50 (MDA-MB-231)	GI50 (MDA-MB-435)	GI50 (MDA-N)	GI50 (PC-3)	GI50 (T47D)
CCOC(=O)/C(=C/c1ccc(OC)cc1)N(CC)CC	> 100 µM (inactive)	> 100 µM (inactive)	> 100 µM (inactive)	> 100 µM (inactive)	> 100 µM (inactive)	> 100 µM (inactive)	> 100 µM (inactive)	> 100 µM (inactive)	> 100 µM (inactive)	> 100 µM (inactive)	> 100 µM (inactive)	> 100 µM (inactive)	> 100 µM (inactive)	> 100 µM (inactive)						
O=C1SC(c2ccccc2)(c2ccccc2)c2ccccc21	> 100 µM (inactive)	50.9 µM (inactive)	34.3 µM (inactive)	> 100 µM (inactive)	> 100 µM (inactive)		57.7 µM (inactive)	66.8 µM (inactive)	> 100 µM (inactive)	92.5 µM (inactive)	> 100 µM (inactive)	46.3 µM (inactive)	71.6 µM (inactive)	88.3 µM (inactive)						
O=C1C=CC(=O)c2c1ccc1c3ccccc3n(-c3ccccc3)c21	4.86 µM (inactive)	20.5 µM (inactive)	3.26 µM (inactive)	4.56 µM (inactive)	11 µM (inactive)	2.61 µM (inactive)	15.8 µM (inactive)	17.9 µM (inactive)	16.5 µM (inactive)	13.9 µM (inactive)	17.4 µM (inactive)	16.7 µM (inactive)	2.29 µM (inactive)	7.66 µM (inactive)	17.7 µM (inactive)	4.45 µM (inactive)	14.1 µM (inactive)	5.64 µM (inactive)	13.6 µM (inactive)	2.05 µM (inactive)
Cc1cc(N(CC(C)Br)CC(C)Br)ccc1/N=N/c1ccccc1C(=O)O (configuration not stated)	2.77 µM (inactive)	3.04 µM (inactive)	2.79 µM (inactive)	5.47 µM (inactive)	4.71 µM (inactive)	2.24 µM (inactive)	4.85 µM (inactive)	13.4 µM (inactive)	12.2 µM (inactive)	2.09 µM (inactive)	7.73 µM (inactive)	3.19 µM (inactive)	20 µM (inactive)	11.7 µM (inactive)	11.1 µM (inactive)	14.8 µM (inactive)	16.3 µM (inactive)	4.23 µM (inactive)	12.9 µM (inactive)	0.592 µM (active)
Cc1ccc(S(=O)(=O)c2ccccn2)cc1	> 100 µM (inactive)	> 100 µM (inactive)	> 100 µM (inactive)	> 100 µM (inactive)	> 100 µM (inactive)	> 100 µM (inactive)	> 100 µM (inactive)	> 100 µM (inactive)	> 100 µM (inactive)	> 100 µM (inactive)	> 100 µM (inactive)	> 100 µM (inactive)	> 100 µM (inactive)	> 100 µM (inactive)						
COc1cc2c(c(OC)c1OC)-c1ccc(SC)c(=O)cc1[C@@H](NC(=O)c1ccc(OC(C)=O)cc1)CC2	0.0409 µM (active)	0.01 µM (active)	0.0342 µM (active)	0.0194 µM (active)	0.0419 µM (active)	0.00257 µM (active)	0.0248 µM (active)	0.0198 µM (active)	0.0265 µM (active)	0.0675 µM (active)	0.0306 µM (active)		0.029 µM (active)	0.0454 µM (active)						
N[C@H](C(=O)O)[C@H](Cl)CC(=O)O	> 100 µM (inactive)	> 100 µM (inactive)	> 100 µM (inactive)	> 100 µM (inactive)	> 100 µM (inactive)	> 100 µM (inactive)	> 100 µM (inactive)	> 100 µM (inactive)	> 100 µM (inactive)	> 100 µM (inactive)	> 100 µM (inactive)	> 100 µM (inactive)	> 100 µM (inactive)	> 100 µM (inactive)						
c1ccc2c(c1)cc(C1NCCc3nc[nH]c31)c1ccccc12 (configuration not stated)	32.1 µM (inactive)	54.5 µM (inactive)	23.2 µM (inactive)	13.5 µM (inactive)	32.4 µM (inactive)	> 44.4 µM (inactive)	44.4 µM (inactive)	47.6 µM (inactive)	29.6 µM (inactive)	37.2 µM (inactive)	77.1 µM (inactive)	> 48 µM (inactive)	25.5 µM (inactive)	> 100 µM (inactive)						
O=C(O)C(CS)NCc1c2ccccc2[n+]([O-])c2ccccc12 (configuration not stated)	37.2 µM (inactive)	> 100 µM (inactive)	33.4 µM (inactive)	78.3 µM (inactive)	66.1 µM (inactive)	2.49 µM (inactive)	37.8 µM (inactive)	31.2 µM (inactive)	33.6 µM (inactive)	24.9 µM (inactive)	23 µM (inactive)	30.7 µM (inactive)	27.4 µM (inactive)	95.1 µM (inactive)						
COc1ccc(C(=O)c2cc(OC)c(OC)c(OC)c2)cc1	0.169 µM (active)	0.106 µM (active)	1.29 µM (inactive)	0.0706 µM (active)	0.7 µM (active)	2.41 µM (inactive)	0.0372 µM (active)	0.0481 µM (active)	0.893 µM (active)	28.6 µM (inactive)	0.838 µM (active)	0.0702 µM (active)	0.0556 µM (active)	4.11 µM (inactive)	0.111 µM (active)	0.0881 µM (active)	0.0197 µM (active)	0.016 µM (active)	0.0775 µM (active)	27.5 µM (inactive)
COC(=O)N/N=C(\C)C(CN(C)C)C(c1ccccc1)c1c(O)c2ccccc2oc1=O (configuration not stated)	> 100 µM (inactive)	> 100 µM (inactive)	> 100 µM (inactive)	> 100 µM (inactive)	> 100 µM (inactive)	27.2 µM (inactive)	> 100 µM (inactive)	> 100 µM (inactive)	> 100 µM (inactive)	> 100 µM (inactive)	> 100 µM (inactive)	> 100 µM (inactive)	> 100 µM (inactive)	> 100 µM (inactive)						
C#CCOCn1cnc2ncnc(N)c21	> 100 µM (inactive)	> 100 µM (inactive)	> 100 µM (inactive)	> 100 µM (inactive)	> 100 µM (inactive)	> 100 µM (inactive)	> 100 µM (inactive)	> 100 µM (inactive)	> 100 µM (inactive)	> 100 µM (inactive)	> 100 µM (inactive)	> 100 µM (inactive)	> 100 µM (inactive)	> 100 µM (inactive)						
O=C(CCc1n[nH]c(=S)o1)Nc1ccc(Cl)cc1Cl	> 100 µM (inactive)	> 100 µM (inactive)	> 100 µM (inactive)	> 100 µM (inactive)	> 100 µM (inactive)	68.7 µM (inactive)	34.3 µM (inactive)	> 100 µM (inactive)	> 100 µM (inactive)	> 100 µM (inactive)	> 100 µM (inactive)	> 100 µM (inactive)	15.5 µM (inactive)	> 100 µM (inactive)						
[N-]=[N+]=NC1(c2ccccc2)C(=O)C(Cl)=C(c2ccccc2)N(c2ccccc2)C1=O (configuration not stated)	> 100 µM (inactive)	> 100 µM (inactive)	> 100 µM (inactive)	> 100 µM (inactive)	> 100 µM (inactive)	> 100 µM (inactive)	> 100 µM (inactive)	> 100 µM (inactive)	> 100 µM (inactive)	> 100 µM (inactive)	> 100 µM (inactive)	> 100 µM (inactive)	> 100 µM (inactive)	> 100 µM (inactive)						
Cc1nc(=O)[nH]c2[nH][nH]c(=O)c12	> 100 µM (inactive)	> 100 µM (inactive)	> 100 µM (inactive)	> 100 µM (inactive)	> 100 µM (inactive)	> 100 µM (inactive)	> 100 µM (inactive)	> 100 µM (inactive)	> 100 µM (inactive)	> 100 µM (inactive)	> 100 µM (inactive)		> 100 µM (inactive)	> 100 µM (inactive)						
O=C1NC2(CCCC2)C(=O)C12CCCC2	> 100 µM (inactive)	> 100 µM (inactive)	> 100 µM (inactive)	> 100 µM (inactive)	> 100 µM (inactive)	> 100 µM (inactive)	> 100 µM (inactive)	> 100 µM (inactive)	> 100 µM (inactive)	> 100 µM (inactive)	> 100 µM (inactive)	> 100 µM (inactive)	> 100 µM (inactive)	> 100 µM (inactive)						
FC(F)(F)C1(Cl)C(c2ccccc2)=C1c1ccccc1	17 µM (inactive)	15.1 µM (inactive)	16.6 µM (inactive)	16.6 µM (inactive)	18.3 µM (inactive)	14.8 µM (inactive)	15.8 µM (inactive)	15.6 µM (inactive)	14.6 µM (inactive)	13.5 µM (inactive)	16.9 µM (inactive)	11.7 µM (inactive)	13.4 µM (inactive)	20.9 µM (inactive)						
N#Cc1ccccc1Sc1ccccc1N	> 100 µM (inactive)	67.3 µM (inactive)	> 100 µM (inactive)	> 100 µM (inactive)	> 100 µM (inactive)	20.7 µM (inactive)	> 100 µM (inactive)	93.3 µM (inactive)	> 100 µM (inactive)	64.4 µM (inactive)	> 100 µM (inactive)	18.7 µM (inactive)	> 100 µM (inactive)	> 100 µM (inactive)						

From ChEMBL document CHEMBL1201862, “PubChem BioAssay data set” (2004)
